Experimental data taken from patent US11180504B2 (ORCHID PHARMA LTD., priority 2016, dated 2021).
In brackets after ≈: the same amount, converted by molar mass. Read-outs that look alike come from different tables or passages of the source.

What was measured:
[1] = test system: methicillin-sensitive Staphylococcus aureus; experiment: MIC by broth micro-dilution (CLSI), methicillin-sensitive S. aureus; format: cell-based; conditions: MSSA S. aureus ATCC29213
[2] = test system: carbapenem sensitive Escherichia coli; experiment: MIC by broth micro-dilution (CLSI), carbapenem sensitive E. coli; format: cell-based
[3] = test system: carbapenemase producing K. pneumoniae; experiment: MIC by broth micro-dilution (CLSI), carbapenemase producing K. pneumoniae; format: cell-based, Klebsiella pneumoniae
[4] = test system: carbapenem sensitive Pseudomonas aeruginosa; experiment: MIC by broth micro-dilution (CLSI), carbapenem sensitive P. aeruginosa; format: cell-based
[5] = Staphylococcus aureus, ATCC 29213 / MSSA, read-out: MIC
[6] = Escherichia coli, ATCC25922, ESBL −ve E. coli ATCC25922, read-out: MIC
[7] = Klebsiella pneumoniae, ATCCBAA1705, KPC-2 K. pneumoniae ATCC BAA-1705, read-out: MIC
[8] = Pseudomonas aeruginosa, ATCC27853, Meropenem susceptible P. aeruginosa ATCC27853, read-out: MIC
[9] = KPC-2 K. pneumoniae ATCC BAA-1705

Row | Compound | MIC [1, 5] [µg/mL] | MIC [2, 6] [µg/mL] | MIC [3, 7] [µg/mL] | MIC [4, 8] [µg/mL] | MIC [3, 9] [µg/mL] | MIC [1] [µg/mL] | MIC ([2]; ESBL −ve E. coli ATCC25922) [µg/mL] | MIC ([4]; Meropenem susceptible P. aeruginosa ATCC27853) [µg/mL]
1 | C[C@@H](NC(=O)Cn1cnnn1)[C@H]1C(=O)N2C(C(=O)O)=C(S[C@@H]3CN[C@H](C(=O)N4C[C@@H](N)C[C@H]4CF)C3)[C@H](C)[C@H]12 [Example 491, (4R,5S,6R)-6-((R)-1-(2-(1H-tetrazol-1-yl)acetamido)ethyl)-3-((3S,5S)-5-((2S,4S)-4-amino-2-(fluoromethyl)pyrrolidine-1-carbonyl)pyrrolidin-3-ylthio)-4-methyl-7-oxo-1-azabicyclo[3.2.0]hept-2-eoe-2-carboxylic acid] | 4 (≈ 7.07 µM) | 0.25 (≈ 0.442 µM) | 2 (≈ 3.54 µM) | 8 (≈ 14.1 µM) |  |  |  | 
2 | CO[C@H]1CN(C(=O)[C@@H]2C[C@H](SC3=C(C(=O)O)N4C(=O)[C@H]([C@@H](C)NC(=O)Cn5cnnn5)[C@H]4[C@H]3C)CN2)C[C@@H]1N [Example 494, (4R,5S,6R)-6-((R)-1-(2-(1H-tetrazol-1-yl)acetamido)ethyl)-3-((3S,5S)-5-((3S,4S)-3-amino-4-methoxypyrrolidine-1-carbonyl)pyrrolidin-3-ylthio)-4-methyl-7-oxo-1-azabicyclo[3.2.0]hept-2-ene-2-carboxylic acid] | 8 (≈ 14.2 µM) | 0.25 (≈ 0.444 µM) | 4 (≈ 7.1 µM) | 16 (≈ 28.4 µM) |  |  |  | 
3 | C[C@@H](NC(=O)Cn1cnnn1)[C@H]1C(=O)N2C(C(=O)O)=C(S[C@@H]3CN[C@H](C(=O)N4C[C@@H](F)[C@@H](N)C4)C3)[C@H](C)[C@H]12 [Example 498, (4R,5S,6R)-6-((R)-1-(2-(1H-tetrazol-1-yl)acetamido)ethyl)-3-((3S,5S)-5-((3S,4R)-3-amino-4-fluoropyrrolidine-1-carbonyl)pyrrolidin-3-ylthio)-4-methyl-7-oxo-1-azabicyclo[3.2.0]hept-2-ene-2-carboxylic acid] | 2 (≈ 3.63 µM) | 0.125 (≈ 0.227 µM) | 2 (≈ 3.63 µM) | 8 (≈ 14.5 µM) |  |  |  | 
4 | C[C@@H](NC(=O)Cn1cnnn1)[C@H]1C(=O)N2C(C(=O)O)=C(S[C@@H]3CN[C@H](C(=O)N4CCC5(CCNCC5)C4)C3)[C@H](C)[C@H]12 [Example 499, (4R,5S,6R)-6-((R)-1-(2-(1H-tetrazol-1-yl)acetamido)ethyl)-3-((3S,5S)-5-(2,8-diazaspiro[4.5]decane-2-carbonyl)pyrrolidin-3-ylthio)-4-methyl-7-oxo-1-azabicyclo[3.2.0]hept-2-ene-2-carboxylic acid] | 2 (≈ 3.4 µM) | 0.25 (≈ 0.425 µM) | 1 (≈ 1.7 µM) | 1 (≈ 1.7 µM) |  |  |  | 
5 | C[C@@H](NC(=O)Cn1cnnn1)[C@H]1C(=O)N2C(C(=O)O)=C(S[C@@H]3CN[C@H](C(=O)N4CC[C@@H](C(C)(C)N)C4)C3)[C@H](C)[C@H]12 [Example 500, (4R,5S,6R)-6-((R)-1-(2-(1H-tetrazol-1-yl)acetamido)ethyl)-3-((3S,5S)-5-((R)-3-(2-aminopropan-2-yl)pyrrolidine-1-carbonyl)pyrrolidin-3-ylthio)-4-methyl-7-oxo-1-azabicyclo[3.2.0]hept-2-ene-2-carboxylic acid] | 2 (≈ 3.47 µM) | 0.25 (≈ 0.434 µM) | 2 (≈ 3.47 µM) | 2 (≈ 3.47 µM) |  |  |  | 
6 | C[C@@H](NC(=O)Cn1cnnn1)[C@H]1C(=O)N2C(C(=O)O)=C(S[C@@H]3CN[C@H](C(=O)N4CC5(CCNC5)C4)C3)[C@H](C)[C@H]12 [Example 501, (4R,5S,6R)-6-((R)-1-(2-(1H-tetrazol-1-yl)acetamido)ethyl)-3-((3S,5S)-5-(2,6-diazaspiro[3,4]octane-2-carbonyl)pyrrolidin-3-ylthio)-4-methyl-7-oxo-1-azabicyclo[3.2.0]hept-2-ene-2-carboxylic acid] | 4 (≈ 7.15 µM) | 0.25 (≈ 0.447 µM) | 1 (≈ 1.79 µM) | 1 (≈ 1.79 µM) |  |  |  | 
7 | C[C@@H](NC(=O)Cn1cnnn1)[C@H]1C(=O)N2C(C(=O)O)=C(S[C@@H]3CN[C@H](C(=O)N4CC5CCNC5C4)C3)[C@H](C)[C@H]12 (stereo partly drawn) [Example 505, (4R,5S,6R)-6-((R)-1-(2-(1H-tetrazol-1-yl)acetamido)ethyl)-4-methyl-3-((3S,5S)-5-(octahydropyrrolo[3,4-b]pyrrole-5-carbonyl)pyrrolidin-3-ylthio)-7-oxo-1-azabicyclo[3.2.0]hept-2-ene-2-carboxylic acid] | 2 (≈ 3.57 µM) | 0.25 (≈ 0.447 µM) | 1 (≈ 1.79 µM) | 1 (≈ 1.79 µM) |  |  |  | 
8 | C[C@@H](NC(=O)Cn1cnnn1)[C@H]1C(=O)N2C(C(=O)O)=C(S[C@@H]3CN[C@H](C(=O)N4CC5CCNC5C4)C3)[C@H](C)[C@H]12 (stereo partly drawn) [Example 506, (4R,5S,6R)-6-((R)-1-(2-(1H-tetrazol-1-yl)acetamido)ethyl)-4-methyl-3-((3S,5S)-5-(octahydropyrrolo[3,4-b]pyrrole-5-carbonyl)pyrrolidin-3-ylthio)-7-oxo-1-azabicyclo[3.2.0]hept-2-ene-2-carboxylic acid] |  |  |  |  | 1 (≈ 1.79 µM) | 4 (≈ 7.15 µM) | 0.25 (≈ 0.447 µM) | 1 (≈ 1.79 µM)
9 | C[C@@H](NC(=O)CSC(F)F)[C@H]1C(=O)N2C(C(=O)O)=C(S[C@@H]3CN[C@H](C(=O)N4CC[C@@H](N)C4)C3)[C@H](C)[C@H]12 [Example 507, (4R,5S,6R)-3-((3S,5S)-5-((R)-3-aminopyrrolidine-1-carbonyl)pyrrolidin-3-ylthio)-6-((R)-1-(2-(difluoromethylthio)acetamido)ethyl)-4-methyl-7-oxo-1-azabicyclo[3.2.0]hept-2-ene-2-carboxylic acid] | 2 (≈ 3.65 µM) | 1 (≈ 1.83 µM) | 8 (≈ 14.6 µM) | 64 (≈ 117 µM) |  |  |  | 

Further molecules by falling MIC [1, 5], results first:

Row | MIC [1, 5] [µg/mL] | MIC [2, 6] [µg/mL] | MIC [3, 7] [µg/mL] | MIC [4, 8] [µg/mL] | MIC [3, 9] [µg/mL] | MIC [1] [µg/mL] | MIC ([2]; ESBL −ve E. coli ATCC25922) [µg/mL] | MIC ([4]; Meropenem susceptible P. aeruginosa ATCC27853) [µg/mL] | Compound
10 | 16 (≈ 31.5 µM) | 2 (≈ 3.93 µM) | 8 (≈ 15.7 µM) | 128 (≈ 252 µM) |  |  |  |  | C[C@@H](NC(=O)CN1CCNCC1)[C@H]1C(=O)N2C(C(=O)O)=C(S[C@@H]3CN[C@H](C(=O)N(C)C)C3)[C@H](C)[C@H]12 [Example 508, (4R,5S,6R)-3-((3S,5S)-5-(dimethylcarbamoyl)pyrrolidin-3-ylthio)-4-methyl-7-oxo-6-((R)-1-(2-(piperazin-1-yl)acetamido)ethyl)-1-azabicyclo[3.2.0]hept-2-ene-2-carboxylic acid]
11 | 16 (≈ 23.6 µM) | 0.5 (≈ 0.737 µM) | 16 (≈ 23.6 µM) | 32 (≈ 47.1 µM) |  |  |  |  | C[C@@H](NC(=O)/C(=N\OC(C)(C)C(=O)O)c1csc(N)n1)[C@H]1C(=O)N2C(C(=O)O)=C(S[C@@H]3CN[C@H](C(=O)N4CC[C@@H](N)C4)C3)[C@H](C)[C@H]12 [Example 514, (4R,5S,6R)-3-((3S,5S)-5-((R)-3-aminopyrrolidine-1-carbonyl)pyrrolidin-3-ylthio)-6-((R)-1-((Z)-2-(2-aminothiazol-4-yl)-2-(2-carboxypropan-2-yloxyimino)acetamido)ethyl)-4-methyl-7-oxo-1-azabicyclo[3.2.0]hept-2-ene-2-carboxylic acid]
12 | 8 (≈ 15.1 µM) | 2 (≈ 3.78 µM) | 64 (≈ 121 µM) | > 128 |  |  |  |  | C[C@@H](NC(=O)CN1CCC(F)(F)C1)[C@H]1C(=O)N2C(C(=O)O)=C(S[C@@H]3CN[C@H](C(=O)N(C)C)C3)[C@H](C)[C@H]12 [Example 512, (4R,5S,6R)-6-((R)-1-(2-(3,3-difluoropyrrolidin-1-yl)acetamido)ethyl)-3-((3S,5S)-5-(dimethylcarbamoyl)pyrrolidin-3-ylthio)-4-methyl-7-oxo-1-azabicyclo[3.2.0]hept-2-ene-2-carboxylic acid]
13 | 4 (≈ 6.61 µM) | 0.5 (≈ 0.827 µM) | 2 (≈ 3.31 µM) | 2 (≈ 3.31 µM) |  |  |  |  | C[C@@H](NC(=O)Cn1cnnn1)[C@H]1C(=O)N2C(C(=O)O)=C(S[C@@H]3CN[C@H](C(=O)N4CC[C@@H](NC(=O)CCN)C4)C3)[C@H](C)[C@H]12 [Example 492, (4R,5S,6R)-6-((R)-1-(2-(1H-tetrazol-1-yl)acetamido)ethyl)-3-((3S,5S)-5-((R)-3-(3-aminopropanamido)pyrrolidine-1-carbonyl)pyrrolidin-3-ylthio)-4-methyl-7-oxo-1-azabicyclo[3.2.0]hept-2-ene-2-carboxylic acid]
14 | 4 (≈ 7.15 µM) | 0.25 (≈ 0.447 µM) | 1 (≈ 1.79 µM) | 2 (≈ 3.57 µM) |  |  |  |  | C[C@@H](NC(=O)Cn1cnnn1)[C@H]1C(=O)N2C(C(=O)O)=C(S[C@@H]3CN[C@H](C(=O)N4CCC5(CNC5)C4)C3)[C@H](C)[C@H]12 [Example 502, (4R,5S,6R)-6-((R)-1-(2-(1H-tetrazol-1-yl)acetamido)ethyl)-3-((3S,5S)-5-(2,6-diazaspiro[3.4]octane-6-carbonyl)pyrrolidin-3-ylthio)-4-methyl-7-oxo-1-azabicyclo[3.2.0]hept-2-ene-2-carboxylic acid]
15 | 4 (≈ 7.3 µM) | 0.25 (≈ 0.457 µM) | 1 (≈ 1.83 µM) | 16 (≈ 29.2 µM) |  |  |  |  | C[C@@H](NC(=O)Cn1cnnn1)[C@H]1C(=O)N2C(C(=O)O)=C(S[C@@H]3CN[C@H](C(=O)NC[C@@H]4CCNC4)C3)[C@H](C)[C@H]12 [Example 513, (4R,5S,6R)-6-((R)-1-(2-(1H-tetrazol-1-yl)acetamido)ethyl)-4-methyl-7-oxo-3-((3S,5S)-5-((R)-pyrrolidin-3-ylmethylcarbamoyl)pyrrolidin-3-ylthio)-1-azabicyclo[3.2.0]hept-2-ene-2-carboxylic acid]
16 | 2 (≈ 3.4 µM) | 0.5 (≈ 0.851 µM) |  | 16 (≈ 27.2 µM) | 1 (≈ 1.7 µM) |  |  |  | C[C@@H](NC(=O)Cn1cnnn1)[C@H]1C(=O)N2C(C(=O)O)=C(S[C@@H]3CN[C@H](C(=O)N4CCCC45CCCNC5)C3)[C@H](C)[C@H]12 (stereo partly drawn) [Example 503, (4R,5S,6R)-3-((3S,5S)-5-(1,7-diazaspiro[4.5]decane-1-carbonyl)pyrrolidin-3-ylthio)-6-((R)-1-(2-(1H-tetrazol-1-yl)acetamido)ethyl)-4-methyl-7-oxo-1-azabicyclo[3.2.0]hept-2-ene-2-carboxylic acid]
